Columns and labels:
[1] = test system: PLD1; assay: basic PLD assay with purified PLD1 and activators (headgroup-labeled phosphatidylcholine); assay type: biochemical, human; set-up: increase in maximal effect of PKC- on PLD1: dose or concentration left out as unconfirmed; details: for lipid content giving maximal activation of PLD1: lipid fraction of vesicles; for stimulation of PLD1 activity by lipid: vesicles with 7% acidic lipid in PE/PS background
Experimental: The basic PLD assay was performed as described in Hammond, J. Biol. Chem. 270: 29640-43 (1995) using headgroup-labeled phosphatidyl-choline. Lipids were prepared and labeled. Labeled choline was obtained from American Radiolabelled Chemicals Inc. (Catalog No. ART 284) and extracted with chloroform and methanol 100 ml chloroform/100 ml methanol/90 ml water (100,000 dpm/assay; 1.6 ml). The mixture was vortexed, spun and the bottom layer collected and added to the lipid mixture to give a final concentration of 67 mM PE (Avanti Polar Lipids, Alabaster, Ala., catalog no 850757), 7.6 mM PIP2 (suspended in 20 mM Hepes, pH 7) and 5.4 mM PC (Avanti catalog no 850457). The labeled choline/lipid mixture was sonicated and vortexed until the lipids are dissolved. Sf9 cells were plated onto large flasks (30×10^6 cells/flask) and left to adhere. Once adhered, medium was removed and the cells were infected with virus (at 1:5 or 1:10) for 1 hour with gentle rocking. After that time, virus was removed and fresh medium added, and the cells left to grow for 48 hours at 27 C. Medium was removed from the flask and the cells were washed once with PBS and then lysed in 5 ml lysis buffer (25 mM Tris, 5 mM EDTA, pH 7.5). Cells were scraped out of the flask, placed on ice, sonicated for 10 seconds and centrifuged in a […] centrifuge for 10 minutes at 700 rpm. Supernatant was removed and spun at 30,000 rpm for 60 minutes. Supernatant from this second centrifugation was then removed, and the pellet was resuspended in 0.5 ml lysis buffer, votexed and allowed to settle out.
For the assay, the resulting supernatant containing PLD1 enzyme (1-10 ml) was combined with G-protein(s), 20 ml assay buffer (30 mM Na-Hepes, pH 7.5, 3 mM EGTA, 80 mM KCl, 1 mM DTT, 3.0 mM MgCl2 and 2.0 mM CaCl2) and 10 mM Hepes to make a total volume of 50 ml. 50 ml of the labeled lipid mixture was added, vortexed thoroughly, and incubated at 37 C. for 30 minutes. The reaction was stopped by adding 200 ml of 10% TCA and 100 ml of 10 mg/ml BSA and centrifugation for 5 minutes at 10,000 rpm. […] of the supernatant was removed and counted in 2 ml of scintillation fluid using a LKB scintillation counter for 60 seconds. This was the basic assay used for the following experiments; any modifications were as described below.
To investigate the dependence of enzyme activity on calcium and magnesium, the concentrations of calcium and magnesium ions of the assay medium were varied. For some assays the lipid component of the vesicles was altered. Ptdins (4,5)P2 was purified from a lipid extract of bovine brain as described in Hammond, supra. Synthetic Ptdins (3,4,5)P3 was obtained from Glenn Prestwich, Dept. of Chemistry, SUNY Stony Brook. [^32P]-labeled phospholipids were isolated from extracts of U937 cells labeled overnight with [^32P] PO4 2- as described in Hammond, supra.
Vesicles containing 7% acidic lipid in a background of PE/PS were employed in the foregoing assay. The lipids tested were PI(4,5)P2, PI(3,4,5)P3, PI4P and PI.
ARF-stimulated PLD1activity was determined as the free concentrations of these ions were varied in the assay medium. PLD1 activity was insensitive to changes in Ca^2+ concentration over a side range (<10^−8 M to 10^−2 M). By contrast, ARF-stimulated PLD1 activity was dependent on Mg^2+ with half-maximal activity observed at approximately 10^−4 M.
PLD1 was incubated with increasing concentrations of purified GTP S-activated ARF1(ADP-ribosylation factor 1), RhoA, Rac1 and cdc42. […] RhoA and Rac1 stimulated the enzyme approximately 10- and 13-fold respectively and cdc42 produced an approximately 5-fold activation. Effects of ARF and Rac1 were clearly saturable and, although the concentrations of purified RhoA and cdc42 obtained limited the final concentrations achieved in the assay, at the highest concentrations used, effects of these activators also appeared to be approaching saturation. Activation of PLD1 by these G-proteins was strictly dependent on GTP S. […]

[2] = test system: HL-60 cells; assay: RT-PCR quantification of hPLD2 during dbcAMP-induced HL-60 cell differentiation; assay type: cell-based, human; details: 0.5 mM dbcAMP
Experimental: From the data of Example 7, it was known that a human analog of mPLD2 existed. mPLD2 primers were made from the expressed sequence tags existing in GenBank. To analyze changes in the levels of hPLD2 activity during HL-60 cell differentiation induced by dcbAMP, HL-60 cells maintained in RPMI-1640 medium supplemented with 10% fetal bovine serum, 100 units.ml penicillin and 100 µg/ml streptomycin in a humidified atmosphere containing 5% CO2, at 37 C. were grown in RPMI-1640 medium without fetal bovine serum for 24 hours. Differentiation was initiated by the addition of 0.5 mM dbcAMP. Levels of hPLD2 were quantified later by RT-PCR. Total RNA was isolated from the HL-60 cells at the exponential growth stage by the acid guanidine thiocyanate method following the protocol of Chomczynski, Anal. Biochem. 162:156-62(1992). Two g of RNA was reverse transcribed by using random hexamer mixed primers. The number of amplification cycles were determined to individual primer sets in order to maintain exponential rate of product amplification. Amplified DNA fragments were subjected to electrophoresis on 1.5% agarose gel and visualized by ethidium bromide staining. The intensity of bands was quantified by a densitometer (Atto Densitograph, Tokyo, Japan). Primer E (Forward):
5′[…] 3′. Primer F (reverse):
5′[…] 3′. Amplification conditions used were 94 C. for 30 seconds, 60 C. for 1 minute, and 72 C. for 1 minute; 25-27 cycles.

Compound: [Ca+2] [Ca^2+]
- sensitivity of PLD1 activity to ion concentration ([1]; ARF-stimulated, <10^−8 M to 10^−2 M): insensitive

Compound: [Mg+2] [Mg^2+]
- EC50 ([1]; ARF-stimulated PLD1, free ion concentration, read-out: concentration for half-maximal ARF-stimulated PLD1 activity): ~100 µM

Compound: CCCCCCCCCCCCCC(=O)O[C@@H]1[C@@H](C)[C@@]2(O)[C@@H](C=C(CO)C[C@]3(O)C(=O)C(C)=C[C@@H]23)[C@@H]2C(C)(C)[C@]12OC(C)=O [PMA, phorbolmyristate acetate]
- increase in potency with which PKC- stimulated PLD1 ([1]; 100 mM PMA in assay medium): approximately 10 fold
- increase in maximal effect of PKC- on PLD1 ([1]; PMA in assay medium): approximately 1.5 fold

Compound: O=P(O)(O)O[C@@H]1[C@H](O)[C@H](O)[C@@H](OP(=O)(O)O)[C@H](OP(=O)(O)O)[C@H]1O [inositol 1,4,5 trisphosphate]
- activation of PLD1 or block of activation by PI(4,5)P2 or PI(3,4,5)P3 ([1]; soluble, concentrations up to […]): neither activated PLD1 nor blocked activation

Compound: ARF1: Human ARF1, bacterially-expressed and purified G-protein, GTP S-activated
- stimulation of PLD1 (maximal, concentration series) ([1]; GTP S-activated G-protein, increasing concentrations): approximately 50 fold
- activation of PLD1 by activator alone ([1]; maximally effective concentration: ARF1 4.7 M, RhoA 3.8 M, Rac1 5.3 M, cdc42 5.5 M, PKC- 0.043 M): 49 fold
- activation of PLD1 over basal combined with PKC- ([1]; plus maximally effective PKC-): 145 fold

Compound: PI(3,4,5)P3
- lipid content giving maximal activation of PLD1 [1]: approximately 7%
- stimulation of PLD1 activity by lipid [1]: stimulated

Compound: PI(4,5)P2
- lipid content giving maximal activation of PLD1 [1]: approximately 7%
- stimulation of PLD1 activity by lipid [1]: stimulated

Compound: hPLD2: human analog of mPLD2
- increase in level (printed as activity) on day 1 ([2]; day 1, RT-PCR): approximately 8 fold
- increase in level (printed as activity) on day 2 ([2]; day 2, RT-PCR): approximately 12 fold
- increase in level (printed as activity) on day 3 ([2]; day 3, RT-PCR): approximately 20 fold

Compound: phosphotidylinositol 4-phosphate [PI4P]
- stimulation of PLD1 activity by lipid [1]: Only PI(4,5)P2 and PI(3,4,5)P3 stimulated

Compound: phosphotidylinositol [PI]
- stimulation of PLD1 activity by lipid [1]: Only PI(4,5)P2 and PI(3,4,5)P3 stimulated

Source: patent US6379665B1, “Phospholipase D polypeptide and DNA sequences” (Onyx Pharmaceuticals, Inc., priority 1996, dated 2002)
